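Briefly, cells in 96-well plates were exposed to five compound concentrations for 48 h, and endpoints were estimated by linear interpolation. GI50 = concentration required for 50% inhibition of growth. At the TGI there is no net growth.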 *1 amine or outer side, *2 acyl side, *3 side chain or, on linkers, in order; H or OH if unused. Where a SMILES comes first, the peptide text is derived from it. Bridges are numbered along the chain shown (N, C = ends). [ ]: non-standard residue; d: D form. The star is where a group is joined. Phe(3-Me) = Cc1cccc(C[C@H](N)C(=O)O)c1; NH(4-Cl-2-F-phenyl) = Fc1cc(Cl)ccc1N*; Pro(4R-Me) = C[C@H]1CN[C@H](C(=O)O)C1; Hyp = O=C(O)[C@@H]1C[C@@H](O)CN1; aThr = C[C@H](O)[C@H](N)C(=O)O; Pip = O=C(O)[C@@H]1CCCCN1; CO = O=C([*:1])[*:2] Bounds are passed on as bounds.

Drawing on PubChem BioAssay (NCI), this text covers GI50 and TGI for seven molecules.

Test in all cases: growth of human tumour cells (NCI), 48 h
Test [1] has as its system UO-31 renal.
Test [2] concerns SW-620 colon.
For test [3], the system named is T-47D breast.
Test [4] has as its system NCI/ADR-RES ovarian.
Test [5] concerns OVCAR-5 ovarian.
The subject of test [6] is SNB-75 CNS.
For test [7], the system named is DU-145 prostate.
Test [8] concerns CCRF-CEM leukemia.
In test [9] the test system is NCI-H226 lung.
Test [10] relates to MDA-MB-435.

As to `COc1cccc(/C=C/C(=O)c2cc3c(N)c(C(=O)Nc4cccc(Cl)c4C)sc3nc2C)c1`, the GI50 in [1] was 0.809 µM; in [2] it was 0.472 µM; in test [3], 1.52 µM; in test [4], 0.883 µM; in [5], 1.22 µM; in test [6] it was 0.679 µM. Moreover, the GI50 in [7] is 1.33 µM; in [8], 0.234 µM; in test [9], 0.983 µM; in [10] it was 0.345 µM. Besides, the TGI in [1] is 1.97 µM; in test [2] it was 3.85 µM; in [3], 7.82 µM; in test [4], 3.08 µM; in test [5], 3.44 µM; in [6], above 12.1 µM. For the same molecule, the TGI in test [7] was 3.98 µM; in [8], above 50 µM; in [9] it was 2.53 µM; in [10], 1.32 µM.

On to `O=C(CNC(=O)c1cccc2ccccc12)Nc1ccccc1Oc1ccccc1`, for which the GI50 is 0.643 µM in [1]; 0.283 µM in test [2]; 0.542 µM in test [3]; 0.239 µM in test [4]; 0.521 µM in test [5]; 0.231 µM in [6]. For the same molecule, the GI50 in test [7] was 0.325 µM; in test [8], 0.345 µM; in test [9], 2.19 µM; in test [10] it was 0.0425 µM. For the same molecule, the TGI in [1], in test [2], in test [3], in test [4], in test [5] and in test [6] was above 10 µM throughout. Moreover, the TGI in test [7] is above 10 µM; in test [8] it was above 10 µM; in test [9], above 10 µM; in [10] it was 0.313 µM.

With `Fc1ccc(-c2nnc3sc(-c4cccc(Cl)c4)nn23)cc1Cl`, the GI50 was above 100 µM in [1]; above 100 µM in test [2]; above 100 µM in [3]; above 100 µM in test [4]; above 100 µM in test [5]; 44.4 µM in test [6]. In addition, the GI50 in [7], in test [8], in [9] and in test [10] was above 100 µM in each case. The TGI in test [1], in test [2], in [3], in test [4], in test [5] and in test [6] was above 100 µM in each case. The TGI in [7], in [8], in test [9] and in test [10] was above 100 µM throughout.

On to `CCc1ccc(CCC(=O)Nc2ncc(Cc3ccccc3)s2)o1`, for which the GI50 in test [1] was 3.19 µM; in [2] it was 0.889 µM; in [3] it was 2.6 µM; in test [4] it was 2.39 µM; in test [5] it was 3.93 µM; in [6] it was 1.24 µM. For the same molecule, the GI50 was 4.51 µM in test [7], 2.02 µM in test [8], 53.2 µM in test [9] and 0.301 µM in [10]. Further, the TGI in [1], in test [2], in test [3], in [4], in test [5] and in test [6] was above 100 µM each time. For the same molecule, the TGI in test [7] is above 100 µM; in test [8], above 100 µM; in [9], above 100 µM; in [10] it was 10.1 µM.

With `O=C(N/N=C/c1ccc(O)cc1O)c1ccc(Nc2ccnc(C(F)(F)F)c2)cc1`, the GI50 is above 24.3 µM in test [1]; above 100 µM in test [2]; 1.29 µM in test [3]; above 100 µM in [4]; above 100 µM in test [5]; 3.72 µM in test [6]. Besides, the GI50 in test [7] is 21.9 µM; in test [8], 0.0913 µM; in [9], 26.4 µM; in [10] it was above 100 µM. For the same molecule, the TGI in test [1] was above 100 µM; in test [2] it was above 100 µM; in [3], above 100 µM; in test [4] it was above 100 µM; in [5], above 100 µM; in test [6], 26.7 µM. The TGI in [7], in [8], in test [9] and in test [10] was above 100 µM throughout.

`CCC(C)/C=C(C)/C=C/C(=O)c1c(O)c(-c2ccc(O)cc2)c[nH]c1=O` (stereo not given): the GI50 is 2.16 µM in test [1]; 3.5 µM in [2]; 3.22 µM in test [3]; 3.53 µM in test [4]; 6.1 µM in test [5]; 3.3 µM in test [6]. The GI50 was 2.87 µM in test [7], 2.58 µM in [8], 8.07 µM in test [9] and 2.94 µM in [10]. Also, the TGI came out at 14.3 µM in test [1]; 11.9 µM in test [2]; 17 µM in test [3]; 27.7 µM in [4]; 23.5 µM in test [5]; 14.3 µM in test [6]. Also, the TGI in test [7] worked out at 11.1 µM; in test [8] it was 19.7 µM; in test [9], 22.9 µM; in test [10], 11.2 µM.

Consider `Cc1cccc(C[C@H](NC(=O)Nc2ccc(Cl)cc2F)C(=O)N[C@@H]2C(=O)N3C[C@H](O)C[C@H]3C(=O)N3CCCC[C@H]3C(=O)N[C@@H](C)C(=O)N3C[C@H](C)C[C@H]3C(=O)O[C@H]2C)c1` ({NH(4-Cl-2-F-phenyl)-CO}-[Phe(3-Me)][aThr][Hyp][Pip]A[Pro(4R-Me)]; ester 2-C), for which the GI50 was 2.14 µM in test [1]; 0.595 µM in test [2]; 0.415 µM in test [3]; 11 µM in [4]; 0.554 µM in [5]; 0.544 µM in test [6]. Besides, the GI50 in test [7] was 0.511 µM; in [8], 0.52 µM; in [9], 0.511 µM; in test [10] it was 0.438 µM. The TGI in test [1] is 7.68 µM; in [2], 10.9 µM; in test [3], 4.84 µM; in test [4] it was 33.4 µM; in test [5] it was 2.36 µM; in [6] it was 4.8 µM. Also, the TGI was determined as 9.84 µM in test [7], 12 µM in test [8], 2.63 µM in [9] and 1.74 µM in [10].
